This is an account of results in ChEMBL document CHEMBL1201862, “PubChem BioAssay data set” (2004).

Structures can show the parent of a compound that is named as a salt. Active and inactive are the calls of the source.

Assay [1] can be described thus: cytotoxicity toward NIH3T3 fibroblasts, dose response, counter-screen, cell-based, ATP luminescence, mouse fibroblasts (AID 2010).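 Note: cells exposed to compound for about 90 hours before reading.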 Type of assay: functional.
Assay [2] is described as follows: Luminescence Cell-Based Dose Response HTS to Identify Activators of Luciferase Translation or Activity in H4 […] Cells. [Related pubchem assays: 1829 (Project Summary), 1814 (Primary HTS)]. The format is functional.
A short description of assay [3]: inhibitors of intracellular T. cruzi replication, confirmation, NIH3T3 host cells, beta-gal luminescence (AID 2044).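 Note: intracellular parasites grown in NIH/3T3 mouse fibroblasts as host cells; luminescent beta-galactosidase reporter signal from transgenic T. cruzi replicating inside host cells; inhibitors lower the luminescence signal.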 The format is functional, cell-based.
Another assay concerns H4. Put plainly: Luminescence Cell-Based Dose Response HTS to Identify Activators of 5'UTR Stem-Loop Driven Prion Protein mRNA Translation in H4 Neuroglioblastoma Cells. [Related pubchem assays: 1829 (Project Summary), 1814 (Primary HTS)]. The settings on record: Homo sapiens. Type of assay: functional.
A short description of assay [4]: Luminescence Cell-Based Dose Confirmation HTS to Identify Activators of 5'UTR Stem-Loop Driven Alpha-Synuclein mRNA Translation in H4 Neuroglioblastoma Cells. [Related pubchem assays: 1829 (Project Summary), 1814 (Primary HTS)]. Type of assay: functional.
A further assay has as its target CAAX prenyl protease 2 (Saccharomyces cerevisiae S288c, UniProt Q03530). Type of assay: biochemical.
For another assay, the system named is T-cell. Put plainly: inhibitors of CD8+ T cell–vesicle binding, dose response, mouse 2C CD8+ T cells, flow cytometry (AID 485284). The format is functional. In general terms: Flow cytometry measures light scatter and fluorescence of single cells or particles in a stream.
A further assay deals with T1, Coagulation factor XII (Homo sapiens, UniProt P00748).
T1 sequence (P00748 whole entry): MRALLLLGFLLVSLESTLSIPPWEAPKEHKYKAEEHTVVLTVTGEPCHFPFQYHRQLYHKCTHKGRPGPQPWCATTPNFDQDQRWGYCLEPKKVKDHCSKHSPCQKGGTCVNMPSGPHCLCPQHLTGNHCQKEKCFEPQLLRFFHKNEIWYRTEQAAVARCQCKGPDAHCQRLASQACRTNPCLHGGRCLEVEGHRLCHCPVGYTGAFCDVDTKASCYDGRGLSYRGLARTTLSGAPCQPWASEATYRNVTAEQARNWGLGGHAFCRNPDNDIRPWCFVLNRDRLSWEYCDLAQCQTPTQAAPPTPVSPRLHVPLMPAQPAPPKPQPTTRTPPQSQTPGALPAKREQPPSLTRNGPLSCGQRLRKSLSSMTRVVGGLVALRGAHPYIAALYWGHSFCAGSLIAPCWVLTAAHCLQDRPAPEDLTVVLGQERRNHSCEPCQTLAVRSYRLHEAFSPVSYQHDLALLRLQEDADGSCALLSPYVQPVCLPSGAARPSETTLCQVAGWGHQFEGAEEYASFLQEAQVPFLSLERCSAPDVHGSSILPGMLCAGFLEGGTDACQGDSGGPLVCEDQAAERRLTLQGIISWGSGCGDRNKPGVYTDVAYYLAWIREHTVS
Put plainly: Factor XIIa Dose Response Confirmation from Single Well HTS. [Related pubchem assays (depositor defined):AID701]. The format is functional.

In another assay the target is Integrin alpha-4 (Homo sapiens, UniProt P13612). Put plainly: VLA-4 integrin allosteric ligands, SAR follow-up, cell-based, LIBS antibody binding, flow cytometry (AID 488791). Type of assay: functional.
The target of assay [5] is T2, Dual specificity protein phosphatase 6 (Rattus norvegicus, UniProt Q64346).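 Note: confirmatory in vitro dose-response testing of MKP-3 inhibition; recombinant His-tagged MKP-3 made in E. coli BL21 with OMFP substrate.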
T2 sequence (Q64346 whole entry): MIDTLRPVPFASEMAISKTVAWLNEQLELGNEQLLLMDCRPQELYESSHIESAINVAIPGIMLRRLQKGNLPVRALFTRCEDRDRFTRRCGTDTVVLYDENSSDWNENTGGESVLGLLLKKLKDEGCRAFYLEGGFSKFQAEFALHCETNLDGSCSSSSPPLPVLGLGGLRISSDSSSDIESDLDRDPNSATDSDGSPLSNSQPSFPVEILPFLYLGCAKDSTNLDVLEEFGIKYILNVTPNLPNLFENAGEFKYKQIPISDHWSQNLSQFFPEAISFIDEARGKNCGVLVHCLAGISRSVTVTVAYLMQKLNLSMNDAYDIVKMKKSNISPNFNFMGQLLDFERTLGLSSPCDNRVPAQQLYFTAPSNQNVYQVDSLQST
Type of assay: functional.

For assay [6], the target named is Dual specificity protein phosphatase 3 (Homo sapiens, UniProt P51452). Put plainly: SAR VHR1 Fluorescent Assay for In Vitro dose response studies Set 2. [Related pubchem assays (depositor defined):AID1654, AID1661, AID1878]. The format is functional.
Chain of Dual specificity protein phosphatase 3 (P51452 whole entry): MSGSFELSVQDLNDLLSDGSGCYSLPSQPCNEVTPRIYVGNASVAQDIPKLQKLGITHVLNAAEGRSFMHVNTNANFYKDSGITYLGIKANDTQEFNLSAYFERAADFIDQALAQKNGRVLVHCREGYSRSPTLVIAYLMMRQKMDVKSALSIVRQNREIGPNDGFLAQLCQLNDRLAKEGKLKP
Another assay deals with Mu-type opioid receptor (Homo sapiens, UniProt P35372). Put plainly: SAR Analysis of Antagonists of the MOR Receptor using an Image-Based Assay - Set 3. [Related pubchem assays (depositor defined):AID1777, AID1785, AID1786, AID1966, AID2133, AID2136, AID2284, AID2285, AID2420]. The format is functional.
Chain of Mu-type opioid receptor (P35372 whole entry): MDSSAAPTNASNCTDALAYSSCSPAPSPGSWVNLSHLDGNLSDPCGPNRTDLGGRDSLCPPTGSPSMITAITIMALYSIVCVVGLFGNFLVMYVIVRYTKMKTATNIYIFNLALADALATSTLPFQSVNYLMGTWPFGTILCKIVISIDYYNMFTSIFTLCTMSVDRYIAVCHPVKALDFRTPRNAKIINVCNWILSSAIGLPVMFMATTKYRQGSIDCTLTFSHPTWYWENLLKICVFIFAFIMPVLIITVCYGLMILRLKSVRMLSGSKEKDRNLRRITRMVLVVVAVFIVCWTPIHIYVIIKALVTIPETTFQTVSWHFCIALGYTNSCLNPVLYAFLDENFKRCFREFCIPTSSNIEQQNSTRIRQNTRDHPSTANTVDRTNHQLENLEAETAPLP
The target in assay [7] is T3, Kappa-type opioid receptor (Homo sapiens, UniProt P41145). Put plainly: SAR analysis of Antagonists of the Kappa Opioid Receptor (KOR) using an Image-Based Assay - Set 3. [Related pubchem assays (depositor defined):AID1777, AID1785]. Type of assay: functional.
T3 sequence (P41145 whole entry): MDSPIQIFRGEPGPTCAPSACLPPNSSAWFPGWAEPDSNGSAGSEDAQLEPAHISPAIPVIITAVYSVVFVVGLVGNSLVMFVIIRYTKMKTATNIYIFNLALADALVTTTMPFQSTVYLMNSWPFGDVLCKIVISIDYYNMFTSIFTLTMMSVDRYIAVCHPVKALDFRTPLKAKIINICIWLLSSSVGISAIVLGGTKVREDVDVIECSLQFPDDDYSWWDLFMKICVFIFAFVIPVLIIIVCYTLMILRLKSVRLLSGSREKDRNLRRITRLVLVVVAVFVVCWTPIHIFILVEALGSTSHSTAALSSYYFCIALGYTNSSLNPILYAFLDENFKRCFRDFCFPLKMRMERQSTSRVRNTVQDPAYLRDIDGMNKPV
Assay [8] concerns the target Delta-type opioid receptor (Homo sapiens, UniProt P41143). Put plainly: SAR Analysis of Antagonists of the DOR Receptor using an Image-Based Assay - Set 3. [Related pubchem assays (depositor defined):AID1777, AID1785]. The format is functional.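 Note: U2OS cells expressing DOR1 and beta-arrestin GFP stimulated with 100 nM SNC80; imaging of GFP-tagged beta-arrestin moving into spots after receptor activation.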
For assay [9], the target named is T3, Kappa-type opioid receptor. Put plainly: SAR analysis of small molecule antagonists of the kappa opioid receptor via a luminescent beta-arrestin assay - Set 3. [Related pubchem assays (depositor defined):AID1777, AID1778, AID1785, AID1786, AID1966, AID2133, AID2136, AID2285, AID2495]. The format is functional.
The target of a further assay is Hexokinase (Trypanosoma brucei, UniProt Q38C41). Put plainly: Confirmation assay for inhibitors of Trypanosoma brucei hexokinase 1-Analogue-first series. [Related pubchem assays (depositor defined):AID1430, AID1632, AID2516, AID2560, AID2579, AID2600, AID449725, AID492951]. The format is functional.
Chain of Hexokinase (Q38C41 whole entry): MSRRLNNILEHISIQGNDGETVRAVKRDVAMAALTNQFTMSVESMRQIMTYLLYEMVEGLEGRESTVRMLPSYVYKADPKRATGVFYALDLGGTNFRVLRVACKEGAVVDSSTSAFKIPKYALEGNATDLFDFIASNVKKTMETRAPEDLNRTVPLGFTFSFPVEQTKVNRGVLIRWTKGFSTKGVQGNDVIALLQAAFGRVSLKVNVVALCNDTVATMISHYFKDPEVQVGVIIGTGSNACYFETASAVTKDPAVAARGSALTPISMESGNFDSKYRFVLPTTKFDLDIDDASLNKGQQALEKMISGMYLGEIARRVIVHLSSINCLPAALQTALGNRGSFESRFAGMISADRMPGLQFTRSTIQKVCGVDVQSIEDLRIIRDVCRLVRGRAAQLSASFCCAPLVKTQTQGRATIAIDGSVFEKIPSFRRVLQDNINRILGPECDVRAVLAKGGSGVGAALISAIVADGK
Assay [10] has as its target T4, Ubiquitin-conjugating enzyme E2 N (Homo sapiens, UniProt P61088).
T4 sequence (P61088 whole entry): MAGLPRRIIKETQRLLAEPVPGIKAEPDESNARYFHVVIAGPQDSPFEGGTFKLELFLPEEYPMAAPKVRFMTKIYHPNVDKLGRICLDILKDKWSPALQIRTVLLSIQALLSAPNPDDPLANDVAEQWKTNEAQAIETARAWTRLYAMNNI
The format is functional.

The target in assay [11] is Heat shock protein HSP 90-alpha (Homo sapiens, UniProt P07900). Type of assay: functional, organism-based.
The next assay addresses Phospholipase A2 (Homo sapiens, UniProt P04054). Type of assay: functional.
The target of assay [12] is T4, Ubiquitin-conjugating enzyme E2 N. The format is functional. The source holds these as a separate data set.
The target of assay [13] is C-C chemokine receptor type 6 (Homo sapiens, UniProt P51684). Put plainly: CCR6 receptor antagonists, dose response, cell-based, luminescent beta-arrestin readout (AID 504728). Type of assay: functional.
Chain of C-C chemokine receptor type 6 (P51684 whole entry): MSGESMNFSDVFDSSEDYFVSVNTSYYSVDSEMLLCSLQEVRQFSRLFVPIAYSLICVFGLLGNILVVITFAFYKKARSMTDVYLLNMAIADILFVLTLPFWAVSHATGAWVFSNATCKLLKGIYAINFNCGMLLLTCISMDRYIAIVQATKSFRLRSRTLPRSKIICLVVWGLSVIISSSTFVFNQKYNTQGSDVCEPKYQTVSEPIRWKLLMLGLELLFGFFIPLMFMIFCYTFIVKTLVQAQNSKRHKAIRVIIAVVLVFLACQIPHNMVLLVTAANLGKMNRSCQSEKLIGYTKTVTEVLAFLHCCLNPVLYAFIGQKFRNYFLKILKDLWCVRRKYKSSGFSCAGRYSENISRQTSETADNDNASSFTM
A further assay has as its target Bcl-2-related protein A1 (Mus musculus, UniProt Q07440). The format is functional.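 Note: confirmatory dose–response counterscreen on Bfl-1, used to check hits from a UBC13 polyubiquitin inhibitor campaign.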
The target of a further assay is Beta-galactosidase (Escherichia coli, UniProt Q8VNN2). Put plainly: beta-galactosidase enzyme inhibitors and activators, dose response, artefact control for CCR6 antagonist project, biochemical, E. coli enzyme, set 3 (AID 504712). Type of assay: functional.
Chain of Beta-galactosidase (Q8VNN2 whole entry): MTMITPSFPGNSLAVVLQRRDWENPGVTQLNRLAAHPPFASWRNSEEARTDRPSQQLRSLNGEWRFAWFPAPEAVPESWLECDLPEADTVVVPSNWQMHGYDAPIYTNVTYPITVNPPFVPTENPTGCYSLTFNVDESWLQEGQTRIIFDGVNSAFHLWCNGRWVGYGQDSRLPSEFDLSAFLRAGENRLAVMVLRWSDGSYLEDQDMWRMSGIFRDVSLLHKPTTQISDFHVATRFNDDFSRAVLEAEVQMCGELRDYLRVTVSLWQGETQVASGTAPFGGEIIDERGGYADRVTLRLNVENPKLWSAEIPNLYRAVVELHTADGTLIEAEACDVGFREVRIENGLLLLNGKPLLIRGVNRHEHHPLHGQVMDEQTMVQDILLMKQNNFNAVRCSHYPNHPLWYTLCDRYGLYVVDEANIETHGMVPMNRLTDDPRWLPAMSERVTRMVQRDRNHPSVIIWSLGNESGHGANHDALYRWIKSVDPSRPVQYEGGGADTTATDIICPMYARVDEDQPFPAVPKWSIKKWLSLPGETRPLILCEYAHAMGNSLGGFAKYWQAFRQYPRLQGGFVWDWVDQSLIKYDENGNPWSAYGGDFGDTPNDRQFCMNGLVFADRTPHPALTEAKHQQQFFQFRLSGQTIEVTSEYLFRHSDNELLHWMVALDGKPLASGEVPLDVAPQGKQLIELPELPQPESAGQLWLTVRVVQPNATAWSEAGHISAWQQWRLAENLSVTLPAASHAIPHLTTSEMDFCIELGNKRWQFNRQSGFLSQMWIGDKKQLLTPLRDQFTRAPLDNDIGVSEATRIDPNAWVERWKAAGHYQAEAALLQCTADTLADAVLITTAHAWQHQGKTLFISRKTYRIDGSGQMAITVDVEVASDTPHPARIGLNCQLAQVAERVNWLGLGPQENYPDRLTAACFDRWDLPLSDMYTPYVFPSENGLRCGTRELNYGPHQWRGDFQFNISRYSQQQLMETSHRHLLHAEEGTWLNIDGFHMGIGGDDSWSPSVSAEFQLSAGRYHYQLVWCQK
Another assay deals with Large T antigen (Simian virus 40, UniProt P03070). Type of assay: functional, Betapolyomavirus macacae.
Chain of Large T antigen (P03070 whole entry): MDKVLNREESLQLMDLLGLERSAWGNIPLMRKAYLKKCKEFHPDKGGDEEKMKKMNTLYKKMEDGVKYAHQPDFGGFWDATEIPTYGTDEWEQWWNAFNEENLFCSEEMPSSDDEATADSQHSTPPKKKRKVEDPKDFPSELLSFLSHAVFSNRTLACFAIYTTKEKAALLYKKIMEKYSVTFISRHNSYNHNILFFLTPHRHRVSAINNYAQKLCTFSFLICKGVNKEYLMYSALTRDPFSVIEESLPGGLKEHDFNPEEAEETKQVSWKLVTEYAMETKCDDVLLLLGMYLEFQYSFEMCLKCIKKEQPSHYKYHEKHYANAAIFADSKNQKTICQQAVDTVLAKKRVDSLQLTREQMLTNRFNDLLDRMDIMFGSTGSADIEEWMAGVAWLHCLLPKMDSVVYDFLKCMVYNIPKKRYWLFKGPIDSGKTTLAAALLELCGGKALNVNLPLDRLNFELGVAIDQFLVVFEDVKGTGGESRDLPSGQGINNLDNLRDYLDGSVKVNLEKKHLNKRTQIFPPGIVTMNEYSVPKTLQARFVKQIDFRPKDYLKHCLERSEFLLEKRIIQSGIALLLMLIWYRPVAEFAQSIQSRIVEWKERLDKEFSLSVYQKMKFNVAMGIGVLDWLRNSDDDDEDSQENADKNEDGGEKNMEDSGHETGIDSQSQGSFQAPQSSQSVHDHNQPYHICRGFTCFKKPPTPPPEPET
In another assay the target is Cysteine protease ATG4B (Homo sapiens, UniProt Q9Y4P1). The format is functional.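 Note: Fluorescence-based dose-response confirmation assay measuring inhibition of ATG4B activity.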
Chain of Cysteine protease ATG4B (Q9Y4P1 whole entry): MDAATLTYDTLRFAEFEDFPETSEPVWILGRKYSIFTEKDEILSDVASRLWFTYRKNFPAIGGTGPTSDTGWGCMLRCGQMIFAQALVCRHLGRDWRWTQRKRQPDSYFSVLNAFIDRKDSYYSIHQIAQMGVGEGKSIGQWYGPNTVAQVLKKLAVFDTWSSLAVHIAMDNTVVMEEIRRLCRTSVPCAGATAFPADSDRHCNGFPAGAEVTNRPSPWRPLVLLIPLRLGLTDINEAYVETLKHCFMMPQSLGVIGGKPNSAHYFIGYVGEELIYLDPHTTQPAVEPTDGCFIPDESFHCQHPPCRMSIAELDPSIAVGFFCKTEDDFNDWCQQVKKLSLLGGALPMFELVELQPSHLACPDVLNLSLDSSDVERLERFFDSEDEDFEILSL
The next assay concerns the target T5, Hexokinase HKDC1 (Homo sapiens, UniProt Q2TB90).
T5 sequence (Q2TB90 whole entry): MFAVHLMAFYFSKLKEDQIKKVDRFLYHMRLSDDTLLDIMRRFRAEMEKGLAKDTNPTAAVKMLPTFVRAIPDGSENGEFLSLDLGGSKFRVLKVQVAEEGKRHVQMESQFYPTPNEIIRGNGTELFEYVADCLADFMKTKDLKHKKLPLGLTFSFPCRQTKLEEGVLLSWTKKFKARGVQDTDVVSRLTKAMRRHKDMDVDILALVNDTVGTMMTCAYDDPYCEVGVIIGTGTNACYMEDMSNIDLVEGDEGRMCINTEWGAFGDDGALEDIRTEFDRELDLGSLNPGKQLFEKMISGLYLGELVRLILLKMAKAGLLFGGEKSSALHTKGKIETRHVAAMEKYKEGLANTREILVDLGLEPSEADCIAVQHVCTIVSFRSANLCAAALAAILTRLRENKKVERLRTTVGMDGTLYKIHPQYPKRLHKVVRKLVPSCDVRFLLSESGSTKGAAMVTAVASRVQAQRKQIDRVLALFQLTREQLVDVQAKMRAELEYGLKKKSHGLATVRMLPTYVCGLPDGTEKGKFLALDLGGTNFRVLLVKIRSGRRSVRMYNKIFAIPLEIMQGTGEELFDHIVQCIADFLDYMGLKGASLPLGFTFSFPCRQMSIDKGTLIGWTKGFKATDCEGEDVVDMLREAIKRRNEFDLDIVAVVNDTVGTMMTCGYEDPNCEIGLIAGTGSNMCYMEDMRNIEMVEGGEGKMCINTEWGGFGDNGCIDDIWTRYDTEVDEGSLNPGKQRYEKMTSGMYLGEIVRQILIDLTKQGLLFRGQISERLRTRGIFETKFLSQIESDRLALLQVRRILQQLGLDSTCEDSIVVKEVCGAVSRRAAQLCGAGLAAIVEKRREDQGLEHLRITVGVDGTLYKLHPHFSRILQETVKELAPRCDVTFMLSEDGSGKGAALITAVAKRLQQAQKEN
Put plainly: HKDC1 hexokinase inhibitors, dose response, biochemical, W721R variant (AID 504729). The format is functional.

Chain of Phospholipase A2 (P04054 whole entry): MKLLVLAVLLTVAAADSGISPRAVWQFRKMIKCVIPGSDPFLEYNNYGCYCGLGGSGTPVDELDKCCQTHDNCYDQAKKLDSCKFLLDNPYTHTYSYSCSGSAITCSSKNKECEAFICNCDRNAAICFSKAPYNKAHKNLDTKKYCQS
Chain of Delta-type opioid receptor (P41143 whole entry): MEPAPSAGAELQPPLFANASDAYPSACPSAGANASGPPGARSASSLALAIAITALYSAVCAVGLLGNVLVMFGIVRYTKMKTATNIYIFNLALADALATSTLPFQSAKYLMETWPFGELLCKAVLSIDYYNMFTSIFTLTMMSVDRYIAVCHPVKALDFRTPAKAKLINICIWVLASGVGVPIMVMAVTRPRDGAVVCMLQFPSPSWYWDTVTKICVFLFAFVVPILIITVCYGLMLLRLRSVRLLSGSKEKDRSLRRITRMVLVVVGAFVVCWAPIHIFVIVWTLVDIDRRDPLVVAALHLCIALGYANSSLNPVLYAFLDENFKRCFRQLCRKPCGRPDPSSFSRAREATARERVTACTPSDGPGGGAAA
Chain of CAAX prenyl protease 2 (Q03530 whole entry): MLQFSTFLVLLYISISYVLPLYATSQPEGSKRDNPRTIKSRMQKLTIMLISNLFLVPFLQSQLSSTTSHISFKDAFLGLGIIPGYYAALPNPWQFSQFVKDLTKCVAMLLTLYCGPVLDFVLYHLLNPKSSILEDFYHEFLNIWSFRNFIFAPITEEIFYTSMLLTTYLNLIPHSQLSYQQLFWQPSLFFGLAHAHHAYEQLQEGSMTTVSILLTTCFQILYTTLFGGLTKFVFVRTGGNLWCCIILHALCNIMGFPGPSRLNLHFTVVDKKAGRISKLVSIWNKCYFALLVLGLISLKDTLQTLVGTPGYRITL
Chain of Bcl-2-related protein A1 (Q07440 whole entry): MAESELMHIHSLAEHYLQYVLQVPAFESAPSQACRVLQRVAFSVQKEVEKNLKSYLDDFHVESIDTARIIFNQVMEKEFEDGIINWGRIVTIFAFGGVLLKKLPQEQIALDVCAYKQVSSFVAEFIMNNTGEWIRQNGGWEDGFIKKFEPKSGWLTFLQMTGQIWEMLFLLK

One may read the EC50 as the concentration giving half of the maximal effect. For orientation: AC50 means the concentration giving half of the maximal activity seen. As for `Cc1ccc2c(c1)sc[n+]2Cc1ccccc1`, the EC50 in assay [1] was > 60 µM (not active); in assay [2] it was 46.1 µM (active); in [3] it was 1.87 µM (active); with H4, 68.9 µM (inconclusive); in assay [4], 11.9 µM (active). The concentration at half-maximal activity (AC50) at CAAX prenyl protease 2 is 18.6 µM (active).

`COc1ccc([C@H]2CC(=O)C=C(c3ccc(OC)nc3)C2)cc1`: in the assay on T-cell, the half-maximal effective concentration (EC50) was 3.19 µM (active).

The term IC50 denotes the point on the concentration scale where inhibition reaches its midpoint. For the compound `CCc1ccc(C(=O)COC(=O)c2cccs2)cc1`, the IC50 at Coagulation factor XII was > 50 µM (inactive).

On to `O=C1NC(=O)C2(N1)c1ccccc1-c1ccccc12`, for which the EC50 at Integrin alpha-4 is 0.334 µM (active).

As for `Cc1ccc(C(=O)NC2CCSc3ccccc32)cc1S(N)(=O)=O` (stereo unspecified), the IC50 in [5] and in assay [6] was > 100 µM (inactive) each time.

Take `CCN(CCNC(=O)c1ccc(CNS(=O)(=O)c2ccc(Br)cc2)cc1)Cc1ccccc1`: the 50% inhibitory concentration (IC50) at Mu-type opioid receptor was 8.46 µM (active); in [7] it was 4.82 µM (active); in assay [8], > 32 µM (inactive); in assay [9], 19.4 µM (inactive).

On to `O=C(CCn1sc2ccccc2c1=O)Nc1ccccc1`, for which the half-maximal inhibitory concentration (IC50) at Hexokinase is 19.8 µM (active).

With `CCCCC(CC)CNC(=N)NC(=N)NCCCCCCNC(=N)NC(=N)NCC(CC)CCCC` (stereo unspecified) [ALEXIDINE HYDROCHLORIDE], the IC50 is 1.73 µM (active) in assay [10]; 9.51 µM (active) at Phospholipase A2; 1.98 µM (active) in [12]; 25.9 µM (inactive) in assay [13]; 5.95 µM (active) at Bcl-2-related protein A1; > 66.6 µM (inactive) on Beta-galactosidase. Moreover, the half-inhibitory concentration (IC50) at Large T antigen is 29.1 µM (active); on Cysteine protease ATG4B it was 3.89 µM (active); at Hexokinase HKDC1, 14.2 µM (active). Moreover, in assay [11], the AC50 was 4.05 µM (active).
